{
  "source": "the supplement of paper PMC10307832",
  "assay_in_all_cases": "relative viability (nuclei count vs DMSO), 5 days (fraction); higher = more cells survive",
  "key": {"201T": {"system": "201T", "outline": "(§1)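 Lung cancer cell lines in 1536-well plates were dosed by pin tool the day after seeding, either with one drug alone or with a fixed anchor-drug dose plus five library-drug doses (not always all listed) in √10 steps. After 5 days, cells were fixed and their nuclei stained in one step (final 0.05% Triton X-100, 1% formaldehyde, 1 ug/ml Hoechst), then counted on 4× images. Relative viability is the nuclei count in treated wells divided by that in vehicle wells. Values are medians of duplicate plates.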"}, "ABC-1": {"system": "ABC-1", "outline": "as §1"}, "BEN": {"system": "BEN", "outline": "as §1"}, "CAL-12T": {"system": "CAL-12T", "outline": "as §1"}, "COR-L 105": {"system": "COR-L 105", "outline": "as §1"}, "EKVX": {"system": "EKVX", "outline": "as §1"}, "HARA": {"system": "HARA", "outline": "as §1"}, "HCC-366": {"system": "HCC-366", "outline": "as §1"}, "LK-2": {"system": "LK-2", "outline": "as §1"}, "LOU-NH91": {"system": "LOU-NH91", "outline": "as §1"}, "NCI-H1437": {"system": "NCI-H1437", "outline": "as §1"}, "NCI-H1666": {"system": "NCI-H1666", "outline": "as §1"}, "NCI-H2009": {"system": "NCI-H2009", "outline": "as §1"}, "NCI-H2170": {"system": "NCI-H2170", "outline": "as §1"}, "NCI-H3122": {"system": "NCI-H3122", "outline": "as §1"}, "NCI-H441": {"system": "NCI-H441", "outline": "as §1"}, "NCI-H460": {"system": "NCI-H460", "outline": "as §1"}, "NCI-H661": {"system": "NCI-H661", "outline": "as §1"}, "NCI-H727": {"system": "NCI-H727", "outline": "as §1"}, "PC-14": {"system": "PC-14", "outline": "as §1"}},
  "data": [
    {"smiles": "COc1nc(C)cnc1NS(=O)(=O)c1cccnc1-c1ccc(-c2nnco2)cc1", "note": "[Zibotentan] + Cc1nc(NC(=O)N2CCC[C@H]2C(N)=O)sc1-c1ccnc(C(C)(C)C(F)(F)F)c1 [Alpelisib] (partner 2 µM)", "values": [
      {"measurement": "relative viability", "setting": "201T; first compound 0.08 µM", "value": 1.05},
      {"measurement": "relative viability", "setting": "201T; first compound 0.253 µM", "value": 0.993},
      {"measurement": "relative viability", "setting": "201T; first compound 0.8 µM", "value": 1.1},
      {"measurement": "relative viability", "setting": "201T; first compound 2.53 µM", "value": 1.11},
      {"measurement": "relative viability", "setting": "ABC-1; first compound 0.08 µM", "value": 1.1},
      {"measurement": "relative viability", "setting": "ABC-1; first compound 0.253 µM", "value": 0.689},
      {"measurement": "relative viability", "setting": "ABC-1; first compound 0.8 µM", "value": 1.11},
      {"measurement": "relative viability", "setting": "ABC-1; first compound 2.53 µM", "value": 1.07},
      {"measurement": "relative viability", "setting": "BEN; first compound 0.08 µM", "value": 1.17},
      {"measurement": "relative viability", "setting": "BEN; first compound 0.253 µM", "value": 0.955},
      {"measurement": "relative viability", "setting": "BEN; first compound 0.8 µM", "value": 1.02},
      {"measurement": "relative viability", "setting": "BEN; first compound 2.53 µM", "value": 0.922},
      {"measurement": "relative viability", "setting": "CAL-12T; first compound 0.08 µM", "value": 1.25},
      {"measurement": "relative viability", "setting": "CAL-12T; first compound 0.253 µM", "value": 0.923},
      {"measurement": "relative viability", "setting": "CAL-12T; first compound 0.8 µM", "value": 1.33},
      {"measurement": "relative viability", "setting": "CAL-12T; first compound 2.53 µM", "value": 1.23},
      {"measurement": "relative viability", "setting": "COR-L 105; first compound 0.08 µM", "value": 1.13},
      {"measurement": "relative viability", "setting": "COR-L 105; first compound 0.253 µM", "value": 0.892},
      {"measurement": "relative viability", "setting": "COR-L 105; first compound 0.8 µM", "value": 1.21},
      {"measurement": "relative viability", "setting": "COR-L 105; first compound 2.53 µM", "value": 0.93},
      {"measurement": "relative viability", "setting": "EKVX; first compound 0.08 µM", "value": 0.927},
      {"measurement": "relative viability", "setting": "EKVX; first compound 0.253 µM", "value": 0.86},
      {"measurement": "relative viability", "setting": "EKVX; first compound 0.8 µM", "value": 0.775},
      {"measurement": "relative viability", "setting": "EKVX; first compound 2.53 µM", "value": 0.82},
      {"measurement": "relative viability", "setting": "HARA; first compound 0.08 µM", "value": 0.856},
      {"measurement": "relative viability", "setting": "HARA; first compound 0.253 µM", "value": 0.764},
      {"measurement": "relative viability", "setting": "HARA; first compound 0.8 µM", "value": 0.686},
      {"measurement": "relative viability", "setting": "HARA; first compound 2.53 µM", "value": 0.89},
      {"measurement": "relative viability", "setting": "HCC-366; first compound 0.08 µM", "value": 0.561},
      {"measurement": "relative viability", "setting": "HCC-366; first compound 0.253 µM", "value": 0.373},
      {"measurement": "relative viability", "setting": "HCC-366; first compound 0.8 µM", "value": 0.474},
      {"measurement": "relative viability", "setting": "HCC-366; first compound 2.53 µM", "value": 0.497},
      {"measurement": "relative viability", "setting": "LK-2; first compound 0.08 µM", "value": 1.08},
      {"measurement": "relative viability", "setting": "LK-2; first compound 0.253 µM", "value": 0.911},
      {"measurement": "relative viability", "setting": "LK-2; first compound 0.8 µM", "value": 0.889},
      {"measurement": "relative viability", "setting": "LK-2; first compound 2.53 µM", "value": 1.46},
      {"measurement": "relative viability", "setting": "LOU-NH91; first compound 0.08 µM", "value": 0.749},
      {"measurement": "relative viability", "setting": "LOU-NH91; first compound 0.253 µM", "value": 0.696},
      {"measurement": "relative viability", "setting": "LOU-NH91; first compound 0.8 µM", "value": 0.785},
      {"measurement": "relative viability", "setting": "LOU-NH91; first compound 2.53 µM", "value": 0.702},
      {"measurement": "relative viability", "setting": "NCI-H1437; first compound 0.08 µM", "value": 0.949},
      {"measurement": "relative viability", "setting": "NCI-H1437; first compound 0.253 µM", "value": 0.867},
      {"measurement": "relative viability", "setting": "NCI-H1437; first compound 0.8 µM", "value": 0.913},
      {"measurement": "relative viability", "setting": "NCI-H1437; first compound 2.53 µM", "value": 0.973},
      {"measurement": "relative viability", "setting": "NCI-H1666; first compound 0.08 µM", "value": 1.12},
      {"measurement": "relative viability", "setting": "NCI-H1666; first compound 0.253 µM", "value": 0.724},
      {"measurement": "relative viability", "setting": "NCI-H1666; first compound 0.8 µM", "value": 1.18},
      {"measurement": "relative viability", "setting": "NCI-H1666; first compound 2.53 µM", "value": 0.993},
      {"measurement": "relative viability", "setting": "NCI-H2009; first compound 0.08 µM", "value": 1.14},
      {"measurement": "relative viability", "setting": "NCI-H2009; first compound 0.253 µM", "value": 1.1},
      {"measurement": "relative viability", "setting": "NCI-H2009; first compound 0.8 µM", "value": 1.18},
      {"measurement": "relative viability", "setting": "NCI-H2009; first compound 2.53 µM", "value": 1.2},
      {"measurement": "relative viability", "setting": "NCI-H2170; first compound 0.08 µM", "value": 0.802},
      {"measurement": "relative viability", "setting": "NCI-H2170; first compound 0.253 µM", "value": 0.791},
      {"measurement": "relative viability", "setting": "NCI-H2170; first compound 0.8 µM", "value": 0.889},
      {"measurement": "relative viability", "setting": "NCI-H2170; first compound 2.53 µM", "value": 0.835},
      {"measurement": "relative viability", "setting": "NCI-H3122; first compound 0.08 µM", "value": 0.801},
      {"measurement": "relative viability", "setting": "NCI-H3122; first compound 0.253 µM", "value": 0.773},
      {"measurement": "relative viability", "setting": "NCI-H3122; first compound 0.8 µM", "value": 0.76},
      {"measurement": "relative viability", "setting": "NCI-H3122; first compound 2.53 µM", "value": 0.822},
      {"measurement": "relative viability", "setting": "NCI-H441; first compound 0.08 µM", "value": 0.757},
      {"measurement": "relative viability", "setting": "NCI-H441; first compound 0.8 µM", "value": 0.776},
      {"measurement": "relative viability", "setting": "NCI-H441; first compound 2.53 µM", "value": 0.779},
      {"measurement": "relative viability", "setting": "NCI-H460; first compound 0.08 µM", "value": 0.58},
      {"measurement": "relative viability", "setting": "NCI-H460; first compound 0.8 µM", "value": 0.57},
      {"measurement": "relative viability", "setting": "NCI-H460; first compound 2.53 µM", "value": 0.452},
      {"measurement": "relative viability", "setting": "NCI-H661; first compound 0.08 µM", "value": 0.717},
      {"measurement": "relative viability", "setting": "NCI-H661; first compound 0.253 µM", "value": 0.49},
      {"measurement": "relative viability", "setting": "NCI-H661; first compound 0.8 µM", "value": 0.569},
      {"measurement": "relative viability", "setting": "NCI-H661; first compound 2.53 µM", "value": 0.578},
      {"measurement": "relative viability", "setting": "NCI-H727; first compound 0.08 µM", "value": 0.483},
      {"measurement": "relative viability", "setting": "NCI-H727; first compound 0.253 µM", "value": 0.794},
      {"measurement": "relative viability", "setting": "NCI-H727; first compound 0.8 µM", "value": 0.55},
      {"measurement": "relative viability", "setting": "NCI-H727; first compound 2.53 µM", "value": 0.643},
      {"measurement": "relative viability", "setting": "PC-14; first compound 0.08 µM", "value": 0.98},
      {"measurement": "relative viability", "setting": "PC-14; first compound 0.253 µM", "value": 0.872},
      {"measurement": "relative viability", "setting": "PC-14; first compound 0.8 µM", "value": 1.06},
      {"measurement": "relative viability", "setting": "PC-14; first compound 2.53 µM", "value": 0.944}
    ]}
  ]
}
